In patent publication US20080194546A1, “Pyrido-, Pyrazo- and Pyrimido-Pyrimidine Derivatives as mTOR Inhibitors” (KuDOS Pharmaceuticals Limited, priority 2005, published 2008):
Where two headings read alike, the source gives them in different places. One block for each compound: values may come before it.

Tests used:
[1] = test system: phosphorylation of Serine 473 in Akt in MDA-MB-468 cells; test: In Vitro phospho-Ser473 Akt Assay (Acumen Explorer); type: cell-based; details: Homo sapiens
[2] = test system: T47D cells; test: Cell Proliferation Assay (GI50), sulforhodamine B (SRB) assay; type: cell-based; details: Homo sapiens, 120 hours, SRB
Experimental: Cell growth was assessed using the sulforhodamine B (SRB) assay (A). T47D (ECACC, 85102201) cells were routinely passaged in RPMI (Invitrogen, 42401018) plus 10% foetal calf serum (FCS), 1% L-glutamine (Gibco BRL, 25030) to a confluence not greater than 80%. To undertake the assay, T47D cells were seeded at 2.5×10^3 cells/well in […] RPMI plus 10% foetal calf serum, 1% L-glutamine in 96 well plates (Costar, 3904) and incubated at 37° C. (+5% CO2) in a humidified incubator. Once the cells had fully adhered (typically following 4-5 hours incubation) the plate was removed from the incubator and 10 μL of the diluent added to the control wells (A1-12 and B1-12). Compound was prepared in a six point semi-log dilution at 10× the final concentration required e.g. for a 6 point range of 30 μM to 100 nM in semi-log steps dilution started at 300 μM in stock plate. Dosing was completed by addition of 10 μL of compound at highest concentration to C1-12 through to the lowest concentration in H1-12. The plates were then incubated for 120 hours prior to SRB analysis.
Upon completion of incubation, media was removed and the cells fixed with […] of ice cold 10% (w/v) trichloroacetic acid. The plates were incubated at 4° C. for 20 minutes and then washed four times with water. Each well of cells was then stained with 100 μl of 0.4% (w/v) SRB (Sulforhodamine B, Sigma, Poole, Dorset, UK, Catalogue number S-9012) in 1% acetic acid for 20 minutes before washing four times with 1% acetic acid. Plates were then dried for 2 hours at room temperature. The dye from the stained cells was solubilized by the addition of 100 μl of 10 mM Tris Base into each well. Plates were gently shaken and left at room temperature for 30 minutes before measuring the optical density at 564 nm on a Microquant microtiter plate reader. The concentration of inhibitor eliciting a 50% reduction in growth (GI50) was determined by analysis of staining intensity of the treated cells as a percentage of the vehicle control wells using Excelfit software.
(A) Skehan, P., Storung, R., Scudiero, R., Monks, A., McMahon, J., Vistica, D., Warren, J. T., Bokesch, H., Kenny, S. and Boyd, M. R. (1990) New […] cytotoxicity assay for anticancer-drug screening. J. Natl. Cancer Inst. 82, 1107-1112.

[3] = molecular target: T1, mTOR (Homo sapiens, UniProt P42345); test: Biological Assay: mTOR enzyme activity, mTOR immunoprecipitated from HeLa cell cytoplasmic extract, recombinant PHAS-1 as substrate; type: biochemical; details: Biological Assay
T1 construct: mTOR protein was isolated from HeLa cell cytoplasmic extract by immunoprecipitation; endogenous in cells; host or cells: HeLa cell cytoplasmic extract (immunoprecipitate)

[4] = molecular target: recombinant mTOR (FLAG-tagged, amino acid residues 1362 to 2549) (Homo sapiens, UniProt P42345); test: Alternative Enzyme Assay: AlphaScreen, inhibition of phosphorylation by recombinant mTOR; type: biochemical; details: Alternative Enzyme Assay, single values; read-out: IC50
[5] = upper bounds, read-out: IC50 values against mTOR

IC50 [3, 5]: < 1000 nM
GI50 [2]: < 1000 nM
Structure (SMILES): COc1ccc(-c2ccc3c(N4CCOCC4)nc(N4C[C@@H](C)O[C@@H](C)C4)nc3n2)cc1CNC1CCCCC1C (stereo partly drawn) [Example 8w]

IC50 [3, 5]: < 1000 nM
GI50 [2]: < 1000 nM
Structure (SMILES): COCCNCc1cc(-c2ccc3c(N4CCOCC4)nc(N4C[C@@H](C)O[C@@H](C)C4)nc3n2)ccc1OC [Example 8v]

IC50 [3, 5]: < 1000 nM
GI50 ([2]; upper bounds): < 300 nM
Structure (SMILES): COc1ccc(-c2ccc3c(N4CCOCC4)nc(N4C[C@@H](C)O[C@@H](C)C4)nc3n2)cc1CNC(C)CC(C)C (stereo partly drawn) [Example 8t]

IC50 [3, 5]: < 1000 nM
GI50 ([2]; upper bounds): < 300 nM
Structure (SMILES): COc1ccc(-c2ccc3c(N4CCOCC4)nc(N4C[C@@H](C)O[C@@H](C)C4)nc3n2)cc1CNC(=S)N1CCCCC1 [Example 8am]

Continued, compound first:

Structure (SMILES): C[C@@H]1CN(c2nc(N3CCOC[C@@H]3C)c3ccc(-c4ccsc4)nc3n2)C[C@H](C)O1 [Example 11k]
IC50 ([1]; MDA-MB-468, read-out: IC50 (phospho-Ser473 Akt assay)): 83 nM
GI50 ([2]; single values): 32 nM

Structure (SMILES): C[C@@H]1CN(c2nc(N3CCOCC3)c3ccc(-c4ccsc4)nc3n2)C[C@H](C)O1 [Comparative Example 1k, reference compound]
IC50 ([1]; MDA-MB-468 cells, single values, read-out: IC50 (phospho-Ser473 Akt assay)): 412 nM
IC50 ([3]; single values, read-out: IC50): 33 nM
IC50 [4]: 225 nM
GI50 ([2]; single values): 268 nM

Structure (SMILES): COc1ccc(-c2ccc3c(N4CCOCC4)nc(N4C[C@@H](C)O[C@@H](C)C4)nc3n2)cc1CNCCCCCNC(=O)OC(C)(C)C [Example 8as]
IC50 [3, 5]: < 100 nM
GI50 ([2]; upper bounds): < 300 nM

Structure (SMILES): COc1ccc(-c2ccc3c(N4CCOCC4)nc(N4C[C@@H](C)O[C@@H](C)C4)nc3n2)cc1CNCC(O)c1cccc(O)c1 (stereo partly drawn) [Example 8bb]
IC50 [3, 5]: < 100 nM
GI50 ([2]; upper bounds): < 300 nM
